# Assay results: PubChem BioAssay AID1963443 (Molecular Pharmacology Branch, DTP, NCI, 2024)
# Test system: MDA-MB-231 complex spheroids, growth inhibition
# Experiment: Anticancer human tumor MDA-MB-231 cell line growth inhibition [Asc];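 note: spheroids exposed to compounds for 7 days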
# Conditions: for IC50: curve of first compound; for viability, T/C: stronger effect = lower value
# Outline: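 Tumor cells were grown as complex spheroids with human endothelial cells (HUVEC) and human mesenchymal stem cells as stroma. Agents were tested alone and in combination, in half-log steps down from the clinical Cmax, or from 10 microM where Cmax was unknown.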
structure (smiles),measurement,setting,value
C#Cc1c(F)ccc2cc(O)cc(-c3ncc4c(N5CC6CCC(C5)N6)nc(OCC56CCCN5CC(F)C6)nc4c3F)c12 (configuration not stated) + CNC(C)C(=O)NC1CN(S(=O)(=O)c2cccc(S(=O)(=O)N3CCC4CCC(C(=O)NC(c5ccccc5)c5ccccc5)N4C(=O)C(NC(=O)C(C)NC)C3)c2)CCC2CCC(C(=O)NC(c3ccccc3)c3ccccc3)N2C1=O,IC50,second compound 0.00316 µM,< 31.6 nM
same,IC50,second compound 0.01 µM,< 31.6 nM
same,IC50,second compound 0.0316 µM,< 31.6 nM
same,IC50,second compound 0.1 µM,< 31.6 nM
same,IC50,second compound 0.316 µM,3780 nM
same,IC50,second compound 1 µM,2970 nM
same,"viability, T/C","second compound 0.00316 µM, first compound 0.0316 µM",4.06%
same,"viability, T/C","second compound 0.00316 µM, first compound 0.1 µM",5.16%
same,"viability, T/C","second compound 0.00316 µM, first compound 0.316 µM",5.29%
same,"viability, T/C","second compound 0.00316 µM, first compound 1 µM",3.82%
same,"viability, T/C","second compound 0.00316 µM, first compound 3.16 µM",2.11%
same,"viability, T/C","second compound 0.00316 µM, first compound 10 µM",1.85%
same,"viability, T/C","second compound 0.01 µM, first compound 0.0316 µM",1.96%
same,"viability, T/C","second compound 0.01 µM, first compound 0.1 µM",2.54%
same,"viability, T/C","second compound 0.01 µM, first compound 0.316 µM",2.18%
same,"viability, T/C","second compound 0.01 µM, first compound 1 µM",3.28%
same,"viability, T/C","second compound 0.01 µM, first compound 3.16 µM",2.31%
same,"viability, T/C","second compound 0.01 µM, first compound 10 µM",1.91%
same,"viability, T/C","second compound 0.0316 µM, first compound 0.0316 µM",1.62%
same,"viability, T/C","second compound 0.0316 µM, first compound 0.1 µM",2.61%
same,"viability, T/C","second compound 0.0316 µM, first compound 0.316 µM",2.63%
same,"viability, T/C","second compound 0.0316 µM, first compound 1 µM",1.93%
same,"viability, T/C","second compound 0.0316 µM, first compound 3.16 µM",2.58%
same,"viability, T/C","second compound 0.0316 µM, first compound 10 µM",1.22%
same,"viability, T/C","second compound 0.1 µM, first compound 0.0316 µM",1.38%
same,"viability, T/C","second compound 0.1 µM, first compound 0.1 µM",1.67%
same,"viability, T/C","second compound 0.1 µM, first compound 0.316 µM",1.43%
same,"viability, T/C","second compound 0.1 µM, first compound 1 µM",1.74%
same,"viability, T/C","second compound 0.1 µM, first compound 3.16 µM",1.84%
same,"viability, T/C","second compound 0.1 µM, first compound 10 µM",2.09%
same,"viability, T/C","second compound 0.316 µM, first compound 0.0316 µM",112%
same,"viability, T/C","second compound 0.316 µM, first compound 0.1 µM",94.9%
same,"viability, T/C","second compound 0.316 µM, first compound 0.316 µM",96%
same,"viability, T/C","second compound 0.316 µM, first compound 1 µM",73%
same,"viability, T/C","second compound 0.316 µM, first compound 3.16 µM",51.6%
same,"viability, T/C","second compound 0.316 µM, first compound 10 µM",34.9%
same,"viability, T/C","second compound 1 µM, first compound 0.0316 µM",99.6%
same,"viability, T/C","second compound 1 µM, first compound 0.1 µM",110%
same,"viability, T/C","second compound 1 µM, first compound 0.316 µM",97.2%
same,"viability, T/C","second compound 1 µM, first compound 1 µM",68.8%
same,"viability, T/C","second compound 1 µM, first compound 3.16 µM",53.4%
same,"viability, T/C","second compound 1 µM, first compound 10 µM",38.7%
